The structures appear in SMILES notation.

Assay in the first data set: not given
Conditions: not given
In general, logP refers to the decadic logarithm of the partition coefficient of the neutral form, usually between octanol and water. A lower logP goes with a more hydrophilic compound. The compound `Clc1ccc2cc(Cl)c(Cl)cc2c1` yielded a log partition coefficient (logP) of 5.12. Still for that read-out and setting: then `Clc1ccc2ccccc2c1Cl`, with 4.42; and `Clc1cc2c(Cl)ccc(Cl)c2cc1Cl`, with 5.81. Still for that read-out and setting: with `Clc1c(Cl)c(Cl)c2c(Cl)c(Cl)c(Cl)c(Cl)c2c1Cl` the figure was 6.42; with `Clc1cc2c(Cl)cccc2c(Cl)c1Cl`, 5.77.

Assay in a further data set: not given
Conditions: not given
This is another data set of the same source.
In turn, `O=[N+]([O-])c1cccc(Cl)c1Cl` registered a logP of 3.01.

The compound `Cc1cccc([N+](=O)[O-])c1C` showed a logP of 2.83.

With `Cc1ccc(Cl)cc1[N+](=O)[O-]`, the lipophilicity (logP) came out at 3.05.

`O=[N+]([O-])c1cc(Cl)cc(Cl)c1` yielded a logP of 3.13. For `Cc1ccc([N+](=O)[O-])cc1C`, the logP is 2.91.

Assay in a further data set: not given
Conditions: not given
The source holds these as a separate data set.
Compound `N#Cc1c(Cl)c(Cl)c(Cl)c(C#N)c1Cl` had a logP of 3.8.

`Cc1ccccc1C(=O)Nc1cccc(OC(C)C)c1` gave a log partition coefficient (logP) of 3.5. The compound `CNC(=O)Oc1ccc(C)c(C)c1` came in with a log partition coefficient (logP) of 2.25.

`CNC(=O)Oc1ccccc1OC(C)C`: the log partition coefficient (logP) was found to be 1.99.

Turning to `CNC(=O)Oc1cc(C)cc(C)c1`, the log partition coefficient (logP) is 2.38.

Assay in a further data set: not given
Conditions: not given
The source holds these as a separate data set.
`ClC(Cl)(Cl)C(Cl)(Cl)Cl` had a logP of 3.82. With `Nc1cc(Cl)c(Cl)c(Cl)c1Cl`, the logP was found to be 3.94. Same read-out and setting: then `Cc1c(Cl)cccc1Cl`, with 4.29; and `Cc1ccc(Cl)cc1`, with 3.42.

The nature of a further data set: method code SF-AS, from PMID: 8197227. The following applies: pH 7.4.
In general, logD refers to lipophilicity at a set pH, counting ionised and neutral species. As to `NC(=S)NNCc1ccc2c(c1)OCO2`, the pH-dependent lipophilicity (logD) came to 0.14.

Regarding `Cc1csc(NN=Cc2ccc3c(c2)OCO3)n1`, the log distribution coefficient (logD) is 1.5. `c1csc(NNCc2ccc3c(c2)OCO3)n1` showed a logD of 1.8.

Compound `NC(=S)N/N=C\c1ccc2c(c1)OCO2` came in with a logD of 1.4.

In turn, `O=C(NNc1nc(-c2ccccc2)cs1)c1ccc2c(c1)OCO2` showed a logD of 2.14.

Assay in another data set: not given
Conditions: not given
The source holds these as a separate data set.
Take `C=C(C)C(=O)OCCCOC(=O)C(=C)C`: the lipophilicity (logP) stood at 1.86. Same read-out and setting: then `C=C(C)C(=O)OCCOC(=O)C(=C)C`, with 1.22; and `C=C(C)C(=O)OCC(C)(C)COC(=O)C(=C)C`, with 2.79; and `C=C(C)C(=O)OCC(F)(F)F`, with 1.56.

Turning to `C=C(C)C(=O)OCCCCCCCC(C)C`, the logP is 4.92.

Assay in another data set: not given
Conditions: not given
This is another data set of the same source.
In turn, `Brc1ccsc1` came in with a log partition coefficient (logP) of 2.59. The same measure, in the same setting: with `O=c1cc(-c2ccccc2)oc2c1ccc1ccccc12` the figure was 4.82. On the same count and under the same terms, then `c1ccc(-c2ccc(-c3ccccc3)cc2)cc1`, with 6.03; and `Cc1cc(C)c(C)cc1C`, with 4.24.

Turning to `O=[N+]([O-])c1ccc(O)c([N+](=O)[O-])c1`, the lipophilicity (logP) came out at 1.79.

Assay in another data set: not given
Conditions: not given
This is another data set of the same source.
`OCCCCCO` had a logP of -0.43. Compound `CC(O)CCO` (centres undefined) displayed a logP of -0.79.

On to `CCC(C)(C)N`, for which the log partition coefficient (logP) was 0.9.

`CC(C)(O)C(C)(C)O` returned a logP of -0.05. The same measure, in the same setting: then `CC(C)CC(N)=O`, with 0.19.

Assay in the next data set: not given
Conditions: not given
This is another data set of the same source.
Regarding `O=C(O)c1ccc([N+](=O)[O-])cc1Cl`, the logP stood at 2.19.

As for `N#Cc1ccc(O)cc1`, the logP amounted to 1.28. On the same count and under the same terms, with `O=[N+]([O-])c1cc(-c2ccccc2)ccc1Br` the figure was 4.82; with `O=C(O)c1cc([N+](=O)[O-])ccc1Cl`, 2.13. Turning to `OCc1ccc(Cl)cc1`, the logP turned out to be 1.99.

The next data set is described as follows: method code SF-AS, from DOI: 10.1021/je700381u. The following applies: pH 0.0.
Compound `O=C(O)c1cc(Br)ccc1F` showed a logD of 3.43. On to `O=C(O)c1cc(Br)ccc1Cl`, for which the log distribution coefficient (logD) came out at 3.16. On the same count and under the same terms, with `O=C(O)c1ccc(Cl)cc1F` the figure was 2.28. The same measure, in the same setting: with `O=C(O)c1ccc(F)cc1Cl` the figure was 2.63; with `O=C(O)c1ccc(Br)cc1F`, 2.67.

Another data set in a line: method code SF-AS, from DOI: 10.1093/chemse/13.4.619. As to conditions: pH 7.2.
`c1ccc(-c2ccncc2)nc1`: the logD is 1.58. The same measure, in the same setting: then `O/N=C/c1cccnc1`, with 0.68; and `c1ccc(-c2cccnc2)nc1`, with 1.46. On the same count and under the same terms, with `COC(=O)c1cccnc1` the figure was 0.72; with `COC(=O)c1ccccn1`, 0.4.

A short description of a further data set: method code SF, from DOI: 10.1016/0378-5173(85)90102-4. As to conditions: pH 8.0.
Take `CCCN(CCC)CC(=O)OCn1ncc2c(=O)[nH]cnc21`: the logD was found to be 1.27. On the same count and under the same terms, with `CCN(CC)[C@@H](C)C(=O)OCn1ncc2c(=O)[nH]cnc21` (racemic) the figure was 0.72; with `CN(C)CC(=O)OCn1ncc2c(=O)[nH]cnc21`, -0.49; with `CC(C)C[C@H](N)C(=O)OCn1ncc2c(=O)[nH]cnc21`, 0.19. In the case of `NC(C(=O)OCn1ncc2c(=O)[nH]cnc21)c1ccccc1` (centres undefined), the pH-dependent lipophilicity (logD) was -0.15.

A further data set in a line: method code SF-GLC, from DOI: 10.1080/03086648508073361.
Conditions: not given
In the case of `CCN(CC)P(=O)(N(CC)CC)N(CC)CC`, the lipophilicity (logP) amounted to 2.53. Same read-out and setting: then `CN(C)P(=O)(N(C)C)N1CCCC1`, with 0.82; and `CN(C)P1(=O)N(C)CCN1C`, with 0.02; and `O=P(N1CCCC1)(N1CCCC1)N1CCCC1`, with 1.67. Same read-out and setting: with `CN(C)P(=O)(N1CCCC1)N1CCCC1` the figure was 1.88.

The nature of the next data set: method code SF-AS, from DOI: 10.1016/s0003-2670(01)80868-0.
Conditions: not given
Consider `CC(=O)CC(=O)C(C)(C)C`, for which the logP was 1.67. The same measure, in the same setting: with `CC(=O)CC(C)=O` the figure was 0.14. Still for that read-out and setting: with `CC(C)C(=O)CC(=O)C(C)C` the figure was 2.22. In turn, `CCCC(=O)CC(=O)CCC` yielded a logP of 2.23. Turning to `CCC(=O)CC(=O)CC`, the lipophilicity (logP) stood at 1.12.

The nature of another data set: method code SF, from DOI: 10.1021/jm9405147, PMID: 8576915.
Conditions: not given
As for `CC1=C(N2CC2)C(=O)C(Cl)=C(N2CC2)C1=O`, the logP turned out to be 1.2. On the same count and under the same terms, then `NC1=CC(=O)c2ccccc2C1=O`, with 1.77; and `CC1=C(N2CC2)C(=O)C(CCOC(N)=O)=C(N2CC2)C1=O`, with 0.16. Still for that read-out and setting: with `NC1=C(Cl)C(=O)c2ccccc2C1=O` the figure was 2.08. Same read-out and setting: then `CC1=C(N2CC2)C(=O)C(Br)=C(N2CC2)C1=O`, with 1.36.

Another data set is described as follows: method code SF-AS, from DOI: 10.1021/jm00163a043, PMID: 2153206. As to conditions: pH 7.0.
Compound `Nc1ccn([C@H]2C=C[C@@H](CO)O2)c(=O)n1` yielded a pH-dependent lipophilicity (logD) of -0.7. Same read-out and setting: then `Nc1ccn(C2CC(O)C(CO)O2)c(=O)n1` (centres undefined), with -1.62; and `Cc1cn([C@H]2C[C@H](O)[C@@H](CO)O2)c(=O)[nH]c1=S`, with -0.07; and `O=c1[nH]c(=S)ccn1[C@H]1CC[C@@H](CO)O1`, with -0.21.

For `Cc1cn([C@H]2CC[C@@H](CO)O2)c(=O)[nH]c1=S`, the log distribution coefficient (logD) was 0.44.

The nature of a further data set: method code SF-AS, from DOI: 10.1021/jm00254a011, PMID: 4845376.
Conditions: not given
Compound `O=[N+]([O-])c1cnc(N2CCNC2=S)s1` yielded a log partition coefficient (logP) of 1.7. As for `CSC1=NCCN1c1ccc([N+](=O)[O-])o1`, the logP was 1.19. The same measure, in the same setting: with `O=C1NCCN1c1ccc([N+](=O)[O-])o1` the figure was 0.25. On the same count and under the same terms, then `O=C1NCCN1c1ncc([N+](=O)[O-])s1`, with 0.91; and `CSC1=NCCN1c1ncc([N+](=O)[O-])s1`, with 1.78.

Another data set is described as follows: method code SF, from DOI: 10.1034/j.1399-3011.2003.00037.x, PMID: 12492901. The following applies: pH 2.0.
Consider `C[C@H](Nc1ccc([N+](=O)[O-])cc1[N+](=O)[O-])C(=O)O`, for which the logD is 2.09. Still for that read-out and setting: then `CC(=O)N[C@@H](Cc1ccccc1)C(=O)O`, with 0.4. The compound `CCCC(Nc1ccc([N+](=O)[O-])cc1[N+](=O)[O-])C(=O)O` (racemic) displayed a logD of 2.88.

In turn, `CCCC[C@H](Nc1ccc([N+](=O)[O-])cc1[N+](=O)[O-])C(=O)O` registered a log distribution coefficient (logD) of 3.25.

Still in this data set, the particulars now being: pH 11.0.
`CC(=O)NC(Cc1c[nH]c2ccccc12)C(N)=O` (centres undefined) yielded a log distribution coefficient (logD) of 0.16.

A short description of the next data set: method code SF-AS, from DOI: 10.1111/j.2042-7158.1989.tb06384.x, PMID: 2576447. As to conditions: pH 7.4.
Turning to `CCCCn1c(=O)n(C)c(=O)c2nc[nH]c21`, the logD was found to be 1.29. Still for that read-out and setting: with `CCn1c(=O)[nH]c(=O)c2nc[nH]c21` the figure was -0.11; with `CCCn1c(=O)[nH]c(=O)c2nc[nH]c21`, 0.33; with `CCCCn1c(=O)[nH]c(=O)c2nc[nH]c21`, 0.84. `CCn1c(=O)n(C)c(=O)c2nc[nH]c21`: the log distribution coefficient (logD) was 0.52.

The next data set can be described thus: from Pratesi, P.; Villa, L.; Ferri, V.; DeMicheli, C.; Grana, E.; Grieco, C.; Silipo, C.; Vittoria, A. (1979). On the additive-constitutive properties of substituent hydrophobic parameters in a set of ….
Conditions: not given
For the compound `c1ccc(C2CO2)cc1` (centres undefined), the log partition coefficient (logP) turned out to be 1.84. On the same count and under the same terms, with `CC(=O)CCC(=O)O` the figure was -0.49; with `C=CC#N`, 0.25; with `O=C(O)CCCC(=O)O`, -0.29. The compound `OCCNc1ccccc1` yielded a logP of 0.82.

(Values after the SangsterLogP compilation.)
